Data published in patent US7781591B2, “Substituted 3-cyanopyridines as protein kinase inhibitors” (Wyeth LLC, priority 2006, dated 2010).

What follows are molecules tested against T1, human PKCθ full length enzyme (Homo sapiens, UniProt Q04759) (assay: PKCθ IMAP assay (fluorescence polarization)). Details: not given.
T1 construct: human PKCθ full length enzyme (Panvera Cat# P2996); purchased Panvera P2996
Assay type: biochemical

T1 sequence (Q04759 whole entry): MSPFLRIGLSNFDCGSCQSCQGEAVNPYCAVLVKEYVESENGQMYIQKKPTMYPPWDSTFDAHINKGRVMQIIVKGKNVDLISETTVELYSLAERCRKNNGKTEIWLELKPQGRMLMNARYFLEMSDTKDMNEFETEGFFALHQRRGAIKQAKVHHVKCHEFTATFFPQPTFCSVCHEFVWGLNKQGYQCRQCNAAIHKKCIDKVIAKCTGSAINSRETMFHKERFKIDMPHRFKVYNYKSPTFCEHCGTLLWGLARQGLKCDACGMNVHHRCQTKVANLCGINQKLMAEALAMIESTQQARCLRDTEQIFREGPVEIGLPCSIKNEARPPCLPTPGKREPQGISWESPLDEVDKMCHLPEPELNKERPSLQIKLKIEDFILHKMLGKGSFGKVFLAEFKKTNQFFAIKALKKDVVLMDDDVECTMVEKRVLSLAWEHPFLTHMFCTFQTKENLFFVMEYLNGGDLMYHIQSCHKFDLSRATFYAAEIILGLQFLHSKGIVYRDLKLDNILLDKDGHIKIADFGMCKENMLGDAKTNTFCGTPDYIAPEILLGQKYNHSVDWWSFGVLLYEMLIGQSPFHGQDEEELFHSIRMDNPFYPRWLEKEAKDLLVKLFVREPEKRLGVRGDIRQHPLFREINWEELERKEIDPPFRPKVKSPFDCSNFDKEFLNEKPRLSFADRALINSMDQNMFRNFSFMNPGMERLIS

Row | Compound | IC50
1 | Cc1c(Nc2c(C#N)cncc2-c2cc3cc(CN4CC[N+](C)([O-])CC4)ccc3o2)ccc2[nH]ccc12 [Compound 554, 4-[(4-methyl-1H-indol-5-yl)amino]-5-{5-[(4-methyl-4-oxidopiperazin-1-yl)methyl]-1-benzofuran-2-yl}nicotinonitrile] | 6 nM

Same assay, conditions: human PKCθ full length enzyme, IMAP; average value; read-out: IC50 PKCθ IMAP

Row | Compound | IC50
2 | Cc1c(Nc2c(C#N)cncc2-c2cnc(C=O)n2C)ccc2[nH]ccc12 [Compound 537, 5-(2-formyl-1-methyl-1H-imidazol-5-yl)-4-[(4-methyl-1H-indol-5-yl)amino]nicotinonitrile] | 23 nM
3 | Cc1c(Nc2c(C#N)cncc2-c2cc3cc(CN4CCN(S(C)(=O)=O)CC4)ccc3o2)ccc2[nH]ccc12 [Compound 538, 4-[(4-methyl-1H-indol-5-yl)amino]-5-(5-{[4-(methylsulfonyl)piperazin-1-yl]methyl}-1-benzofuran-2-yl)nicotinonitrile] | 15 nM
4 | Cc1c(Nc2c(C#N)cncc2-c2cc3cc(CN4CCNCC4)ccc3o2)ccc2[nH]ccc12 [Compound 540, 4-[(4-methyl-1H-indol-5-yl)amino]-5-[5-(piperazin-1-ylmethyl)-1-benzofuran-2-yl]nicotinonitrile] | 5 nM
5 | Cc1c(Nc2c(C#N)cncc2-c2nccs2)ccc2[nH]ccc12 [Compound 541, 4-[(4-methyl-1H-indol-5-yl)amino]-5-(1,3-thiazol-2-yl)nicotinonitrile] | 7 nM
6 | Cc1c(Nc2c(C#N)cncc2-c2nccn2C)ccc2[nH]ccc12 [Compound 542, 5-(1-methyl-1H-imidazol-2-yl)-4-[(4-methyl-1H-indol-5-yl)amino]nicotinonitrile] | 42 nM
7 | Cc1c(Nc2c(C#N)cncc2-c2cscn2)ccc2[nH]ccc12 [Compound 543, 4-[(4-methyl-1H-indol-5-yl)amino]-5-(1,3-thiazol-4-yl)nicotinonitrile] | 8 nM
8 | COc1ccc(-c2cncc(C#N)c2Nc2cccc3cc[nH]c23)cc1OC [Compound 544, 5-(3,4-dimethoxyphenyl)-4-(1H-indol-7-ylamino)nicotinonitrile] | 737 nM
9 | Cc1c(Nc2c(C#N)cncc2-c2cc3cc(CN4CCN(C(=O)OC(C)(C)C)CC4)ccc3o2)cc(Cl)c2[nH]ccc12 [Compound 548, tert-butyl 4-[(2-{4-[(7-chloro-4-methyl-1H-indol-5-yl)amino]-5-cyanopyridin-3-yl}-1-benzofuran-5-yl)methyl]piperazine-1-carboxylate] | 406 nM
10 | COc1ccc(-c2cncc(C#N)c2Nc2ccc3[nH]c(C)cc3c2C)cc1OC [Compound 549, 5-(3,4-dimethoxyphenyl)-4-[(2,4-dimethyl-1H-indol-5-yl)amino]nicotinonitrile] | 10 nM
11 | Cc1c(Nc2c(C#N)cncc2-c2ccccc2CN(C)C)ccc2[nH]ccc12 [Compound 550, 5-{2-[(dimethylamino)methyl]phenyl}-4-[(4-methyl-1H-indol-5-yl)amino]nicotinonitrile] | 205 nM
12 | COc1ccccc1-c1cncc(C#N)c1Nc1ccc2[nH]ccc2c1C [Compound 557, 5-(2-methoxyphenyl)-4-[(4-methyl-1H-indol-5-yl)amino]nicotinonitrile] | 82 nM
13 | COc1cccc(-c2cncc(C#N)c2Nc2ccc3[nH]ccc3c2C)c1 [Compound 558, 5-(3-methoxyphenyl)-4-[(4-methyl-1H-indol-5-yl)amino]nicotinonitrile] | 36 nM
14 | Cc1c(Nc2c(C#N)cncc2-c2ccccc2)ccc2[nH]ccc12 [Compound 560, 4-[(4-methyl-1H-indol-5-yl)amino]-5-phenylnicotinonitrile] | 27 nM
15 | Cc1c(Nc2c(C#N)cncc2-c2cccs2)ccc2[nH]ccc12 [Compound 561, 4-[(4-methyl-1H-indol-5-yl)amino]-5-(2-thienyl)nicotinonitrile] | 21 nM
16 | Cc1c(Nc2c(C#N)cncc2-c2ccsc2)ccc2[nH]ccc12 [Compound 562, 4-[(4-methyl-1H-indol-5-yl)amino]-5-(3-thienyl)nicotinonitrile] | 12 nM
17 | Cc1c(Nc2c(C#N)cncc2-c2cncn2C)ccc2[nH]ccc12 [Compound 564, 5-(1-methyl-1H-imidazol-5-yl)-4-[(4-methyl-1H-indol-5-yl)amino]nicotinonitrile] | 98 nM
18 | Cc1c(Nc2c(C#N)cncc2-c2ccc(NC(=O)N(C)C)cc2)ccc2[nH]ccc12 [Compound 568, 3-(4-{5-cyano-4-[(4-methyl-1H-indol-5-yl)amino]pyridin-3-yl}phenyl)-1,1-dimethylurea] | 56 nM

The next lines start with the values.

Row | IC50 | Compound
19 | 20 nM | Cc1c(Nc2c(C#N)cncc2-c2cc3ccccc3o2)cc(Cl)c2[nH]ccc12 [Compound 531, 5-(1-benzofuran-2-yl)-4-[(7-chloro-4-methyl-1H-indol-5-yl)amino]nicotinonitrile]
20 | 51 nM | Cc1c(Nc2c(C#N)cncc2-c2ccc(OCCCl)cc2)cc(Cl)c2[nH]ccc12 [Compound 533, 5-[4-(2-chloroethoxy)phenyl]-4-[(7-chloro-4-methyl-1H-indol-5-yl)amino]nicotinonitrile]
21 | 17 nM | Cc1c(Nc2c(C#N)cncc2-c2ccc(OCCN(C)C)cc2)cc(Cl)c2[nH]ccc12 [Compound 534, 4-[(7-chloro-4-methyl-1H-indol-5-yl)amino]-5-{4-[2-(dimethylamino)ethoxy]phenyl}nicotinonitrile]
22 | 38 nM | Cc1c(Nc2c(C#N)cncc2-c2ccc(OCCN3CCN(C)CC3)cc2)cc(Cl)c2[nH]ccc12 [Compound 535, 4-[(7-chloro-4-methyl-1H-indol-5-yl)amino]-5-{4-[2-(4-methylpiperazin-1-yl)ethoxy]phenyl}nicotinonitrile]
23 | 58 nM | Cc1c(Nc2c(C#N)cncc2-c2cc3cc(CN4CCN(C(=O)OC(C)(C)C)CC4)ccc3o2)ccc2[nH]ccc12 [Compound 536, tert-butyl 4-[(2-{5-cyano-4-[(4-methyl-1H-indol-5-yl)amino]pyridin-3-yl}-1-benzofuran-5-yl)methyl]piperazine-1-carboxylate]
24 | 36 nM | Cc1c(Nc2c(C#N)cncc2-c2cnc(CN3CCN(C)CC3)n2C)ccc2[nH]ccc12 [Compound 539, 4-[(4-methyl-1H-indol-5-yl)amino]-5-{1-methyl-2-[(4-methylpiperazin-1-yl)methyl]-1H-imidazol-5-yl}nicotinonitrile]
25 | 5 nM | COc1ccc(-c2cncc(C#N)c2Nc2ccc3[nH]ccc3c2F)cc1OC [Compound 546, 5-(3,4-dimethoxyphenyl)-4-[(4-fluoro-1H-indol-5-yl)amino]nicotinonitrile]
26 | 4 nM | Cc1c(Nc2c(C#N)cncc2-c2cc3cc(CN4CCNCC4)ccc3o2)cc(Cl)c2[nH]ccc12 [Compound 547, 4-[(7-chloro-4-methyl-1H-indol-5-yl)amino]-5-[5-(piperazin-1-ylmethyl)-1-benzofuran-2-yl]nicotinonitrile]
27 | 28 nM | COc1ccc(C=O)cc1-c1cncc(C#N)c1Nc1ccc2[nH]ccc2c1C [Compound 551, 5-(5-formyl-2-methoxyphenyl)-4-[(4-methyl-1H-indol-5-yl)amino]nicotinonitrile]
28 | 84 nM | COc1ccc(CN2CCN(C)CC2)cc1-c1cncc(C#N)c1Nc1ccc2[nH]ccc2c1C [Compound 552, 5-{2-methoxy-5-[(4-methylpiperazin-1-yl)methyl]phenyl}-4-[(4-methyl-1H-indol-5-yl)amino]nicotinonitrile]
29 | 0.48 nM | CCN1CCN(Cc2ccc3oc(-c4cncc(C#N)c4Nc4ccc5[nH]ccc5c4C)cc3c2)CC1 [Compound 553, 5-{5-[(4-ethylpiperazin-1-yl)methyl]-1-benzofuran-2-yl}-4-[(4-methyl-1H-indol-5-yl)amino]nicotinonitrile]
30 | 226 nM | COc1ccc(-c2cncc(C#N)c2Nc2ccc3c(ccn3C)c2C)cc1OC [Compound 555, 5-(3,4-dimethoxyphenyl)-4-[(1,4-dimethyl-1H-indol-5-yl)amino]nicotinonitrile]
31 | 110 nM | Cc1c(Nc2c(C#N)cncc2-c2cccc(C(=O)O)c2)ccc2[nH]ccc12 [Compound 556, 3-{5-cyano-4-[(4-methyl-1H-indol-5-yl)amino]pyridin-3-yl}benzoic acid]
32 | 6 nM | COc1ccc(-c2cncc(C#N)c2Nc2ccc3[nH]ccc3c2C)cc1 [Compound 559, 5-(4-methoxyphenyl)-4-[(4-methyl-1H-indol-5-yl)amino]nicotinonitrile]
33 | 22 nM | Cc1c(Nc2c(C#N)cncc2-c2ccoc2)ccc2[nH]ccc12 [Compound 563, 5-(3-furyl)-4-[(4-methyl-1H-indol-5-yl)amino]nicotinonitrile]
34 | 22 nM | Cc1c(Nc2c(C#N)cncc2-c2ccccn2)ccc2[nH]ccc12 [Compound 565, 4′-[(4-methyl-1H-indol-5-yl)amino]-2,3′-bipyridine-5′-carbonitrile]
35 | 23 nM | Cc1c(Nc2c(C#N)cncc2-c2ccc(NC(=O)NC3CC3)cc2)ccc2[nH]ccc12 [Compound 566, 1-(4-{5-cyano-4-[(4-methyl-1H-indol-5-yl)amino]pyridin-3-yl}phenyl)-3-cyclopropylurea]
36 | 21 nM | CNC(=O)Nc1ccc(-c2cncc(C#N)c2Nc2ccc3[nH]ccc3c2C)cc1 [Compound 567, 1-(4-{5-cyano-4-[(4-methyl-1H-indol-5-yl)amino]pyridin-3-yl}phenyl)-3-methylurea]
37 | 59 nM | Cc1c(Nc2c(C#N)cncc2-c2ccc(NC(=O)N3CCOCC3)cc2)ccc2[nH]ccc12 [Compound 569, N-(4-{5-cyano-4-[(4-methyl-1H-indol-5-yl)amino]pyridin-3-yl}phenyl)morpholine-4-carboxamide]
38 | 16 nM | Cc1c(Nc2c(C#N)cncc2-c2ccc([N+](=O)[O-])cc2)ccc2[nH]ccc12 [Compound 570, 4-[(4-methyl-1H-indol-5-yl)amino]-5-(4-nitrophenyl)nicotinonitrile]
39 | 16 nM | Cc1c(Nc2c(C#N)cncc2-c2ccc(N)cc2)ccc2[nH]ccc12 [Compound 571, 5-(4-aminophenyl)-4-[(4-methyl-1H-indol-5-yl)amino]nicotinonitrile]
40 | 50 nM | Cc1c(Nc2c(C#N)cncc2-c2cccc(N)c2)ccc2[nH]ccc12 [Compound 572, 5-(3-aminophenyl)-4-[(4-methyl-1H-indol-5-yl)amino]nicotinonitrile]
